What follows are molecules tested against T1, recombinant USP1 protein (Homo sapiens, UniProt O94782, DEL125-138/DEL229-408/DEL608-737) (assay: Binding affinity to recombinant USP1 protein by differential scanning fluorimetry). Conditions: compound 100 µM; 0.03 mg/mL USP1 (Δ1-66, Δ125-138, Δ229-408, Δ608-737); Tm with compound minus Tm with DMSO; read-out: ΔTm (°C).
T1 sequence (O94782 with tags, fused parts or gaps DEL125-138/DEL229-408/DEL608-737): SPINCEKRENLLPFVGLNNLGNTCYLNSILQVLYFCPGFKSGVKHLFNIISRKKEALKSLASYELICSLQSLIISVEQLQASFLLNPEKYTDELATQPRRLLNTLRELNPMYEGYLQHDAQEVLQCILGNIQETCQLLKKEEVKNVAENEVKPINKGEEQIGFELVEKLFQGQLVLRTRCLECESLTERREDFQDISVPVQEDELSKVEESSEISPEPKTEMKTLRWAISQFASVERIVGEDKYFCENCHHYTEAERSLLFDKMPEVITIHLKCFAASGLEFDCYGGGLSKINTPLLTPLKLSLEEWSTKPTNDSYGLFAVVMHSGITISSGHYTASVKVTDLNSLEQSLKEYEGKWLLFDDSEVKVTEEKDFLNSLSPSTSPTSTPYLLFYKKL
Protocol: <Experimental Example 1> Confirmation and evaluation of the binding affinity to recombinant USP1 protein
To evaluate the binding affinity of the compounds of the present invention to the USP1 protein, the following experiment was performed using differential scanning fluorimetry.
Recombinant 0.03 mg/mL USP1 (Δ1-66, Δ125-138, Δ229-408, Δ608-737) protein, dye reagent, and buffer solution (50 mM Tris-HCl pH 8.0, 150 mM NaCl, 2% glycerol, 1 mM DTT) were mixed and 19 µL of the mixture was dispensed into a well plate (MicroAmp Fast 96-Well Reaction plate, 0.1 mL). Each compound was injected at a final concentration of 100 µM in an amount of 1 µL, and the plate containing a total of 20 µL was sealed with MicroAmp Optical Adhesive Film. The melting temperature (Tm) of the protein in each well was measured using a real-time PCR (RT-PCR) device. The difference between the Tm of the sample containing the compound and the Tm containing DMSO is referred to as delta Tm (ΔTm), where a larger ΔTm value indicates stronger binding affinity. The degree of temperature at which the protein is modified in the presence of the compound compared to DMSO was calculated according to Equation 1 below: [formula]

ΔTm at 100 µM [°C]	Structure (SMILES)
< 5	CNC(=O)c1cc2cnc(-c3c(OC)ncnc3C3CC3)nc2n1CC12CCC(c3nc(C(F)(F)F)cn3C(C)C)(CC1)CO2 [Example 226, 2-(4-cyclopropyl-6-methoxypyrimidin-5-yl)-7-(((1s,4s)-4-(1-isopropyl-4-(trifluoromethyl)-1H-imidazol-2-yl)-2-oxabicyclo[2.2 .2]octan-1-yl)methyl)-N-methyl-7H-pyrrolo[2,3-d]pyrimidine-6-carboxamide]
> 5	COc1ncnc(C2CC2)c1-c1ncc2cc(C(=O)N3CCCC3(C)C)n(Cc3ccc(-c4nc(C(F)(F)F)cn4C(C)C)cc3)c2n1 [Example 107, (2-(4-cyclopropyl-6-methoxypyrimid in-5-yl)-7-(4-(1-isopropyl-4-(trifluoromethyl)-1H-imidazol-2-yl)benzyl)-7H-pyrrolo[2,3-d]pyrimidin-6-yl)(2,2-dimethylpyrrolidin-1-yl)methanone]
< 5	CNC(=O)c1cc2cnc(-c3c(O)ncnc3C3CC3)nc2n1Cc1ccc(-c2nc(C(F)(F)F)cn2C)cc1 [Example 206, 2-(4-cyclopropyl-6-hydroxypyrimidin-5-yl)-N-methyl-7-(4-(1-methyl-4-(trifluoromethyl)-1H-imidazol-2-yl)benzyl)-7H-pyrrolo[2,3-d]pyrimidine-6-carboxamide]
< 5	CCn1cnc(C2CC2)c(-c2ncc3cc(C(=O)NC)n(Cc4ccc(-c5nc(C(F)(F)F)cn5C(C)C)cc4)c3n2)c1=O [Example 62, 2-(4-cyclopropyl-1-ethyl-6-oxo-1,6-dihydropyrimidin-5-yl)-7-(4-(1-isopropyl-4-(trifluoromethyl)-1H-imidazol-2-yl)benzyl)-N-methyl-7H-pyrrolo[2,3-d]pyrimidine-6-carboxamide]
< 5	CNC(=O)c1cc2cnc(-c3c(OC)ncnc3C3CC3)nc2n1Cc1ccc(-n2ccnn2)cc1 [Example 44, 7-(4-(1H-1,2,3-triazol-1-yl)benzyl)-2-(4-cyclopropyl-6-methoxypyrimidin-5-yl)-N-methyl-7H-pyrrolo[2,3-d]pyrimidine-6-carboxamide]
> 5	COc1ncnc(C2CC2)c1-c1ncc2cc(C(=O)N(C)C3CC3)n(Cc3ccc(-c4nc(C(F)(F)F)cn4C(C)C)cc3)c2n1 [Example 76, N-cyclopropyl-2-(4-cyclopropyl-6-methoxypyrimidin-5-yl)-7-(4-(1-isopropyl-4-(trifluoromethyl)-1H-imidazol-2-yl)benzyl)-N-methyl-7H-pyrrolo[2,3-d]pyrimidine-6-carboxamide]
> 5	COc1ncnc(C2CC2)c1-c1ncc2cc(C(=O)N[C@@H](C)CCO)n(Cc3ccc(-c4nc(C(F)(F)F)cn4C(C)C)cc3)c2n1 [Example 91, (S)-2-(4-cyclopropyl-6-methoxypyrimidin-5-yl)-N-(4-hydroxybutan-2-yl)-7-(4-(1-isopropyl-4-(trifluoromethyl)-1H-imidazol-2-yl)benzyl)-7H-pyrrolo[2,3-d]pyrimidine-6-carboxamide]
> 5	COc1ncnc(C2CC2)c1-c1ncc2cc(C(=O)N3CCS(=O)(=O)CC3)n(Cc3ccc(-c4nc(C(F)(F)F)cn4C(C)C)cc3)c2n1 [Example 27, (2-(4-cyclopropyl-6-methoxypyrimid in-5-yl)-7-(4-(1-isopropyl-4-(trifluoromethyl)-1H-imidazol-2-yl)benzyl)-7H-pyrrolo[2,3-d]pyrimidin-6-yl) (1,1-dioxidothiomor pholino)methanone]
< 5	CNC(=O)c1cc2cnc(-c3c(C4CC4)nc[nH]c3=O)nc2n1Cc1ccc(-c2nc(C(F)(F)F)cn2C(C)C)cc1 [Example 59, 2-(4-cyclopropyl-6-oxo-1,6-dihydropyrimidin-5-yl)-7-(4-(1-isopropyl-4-(trifluoromethyl)-1H-imidazol-2-yl)benzyl)-N-methyl-7H-pyrrolo[2,3-d]pyrimidine-6-carboxamide]
> 5	COc1ncnc(C2CC2)c1-c1ncc2cc(C(=O)N(C)C3CNC3)n(Cc3ccc(-c4nc(C(F)(F)F)cn4C(C)C)cc3)c2n1 [Example 103, N-(azetidin-3-yl)-2-(4-cyclopropyl-6-methoxypyrimidin-5-yl)-7-(4-(1-isopropyl-4-(trifluoromethyl) -1H-imidazol-2-yl)benzyl)-N-methyl-7H-pyrrolo[2,3-d]pyrimidine-6-carboxamide]
> 5	COc1ncnc(C2CC2)c1-c1ncc2cc(C(=O)N3CC(F)(C#N)C3)n(Cc3ccc(-c4nc(C(F)(F)F)cn4C(C)C)cc3)c2n1 [Example 72, 1-(2-(4-cyclopropyl-6-methoxypyrimidin-5-yl)-7-(4-(1-isopropyl-4-(trifluoromethyl)-1H-imidazol-2-yl)benzyl)-7H-pyrrolo[2,3-d]pyrimidine-6-carbonyl)-3-fluoroazetidine-3-carbonitrile]
> 5	COc1ncnc(C2CC2)c1-c1ncc2cc(C(=O)Nc3ccc(CN(C)C)cc3)n(Cc3ccc(-c4nc(C(F)(F)F)cn4C(C)C)cc3)c2n1 [Example 77, 2-(4-cyclopropyl-6-methoxypyrimidin-5-yl)-N-(4-((dimethylamino)methyl)phenyl)-7-(4-(1-isopropyl-4-(trifluoromethyl)-1H-imidazol-2-yl)benzyl)-7H-pyrrolo[2,3-d]pyrimidine-6-carboxamide]
> 5	COc1ncnc(C2CC2)c1-c1ncc2cc(C(=O)N3CC(C(F)F)C3)n(Cc3ccc(-c4nc(C(F)(F)F)cn4C(C)C)cc3)c2n1 [Example 96, (2-(4-cyclopropyl-6-methoxypyrimid in-5-yl)-7-(4-(1-isopropyl-4-(trifluoromethyl)-1H-imidazol-2-yl)benzyl)-7H-pyrrolo[2,3-d]pyrimidin-6-yl) (3-(difluoromethyl)azetidin-1-yl)methanone]
> 5	COc1ncnc(C2CC2)c1-c1ncc2cc(C(=O)N[C@H](C)CO)n(Cc3ccc(-c4nc(C(F)(F)F)cn4C(C)C)cc3)c2n1 [Example 81, (R) -2-(4-cyclopropyl-6-methoxypyrimidin-5-yl)-N-(1-hydroxypropan-2-yl)-7-(4-(1-isopropyl-4-(trifluoromethyl)-1H-imidazol-2-yl)benzyl)-7H-pyrrolo[2,3-d]pyrimidine-6-carboxamide]
> 5	COCCN1CC[C@@H](NC(=O)c2cc3cnc(-c4c(OC)ncnc4C4CC4)nc3n2Cc2ccc(-c3nc(C(F)(F)F)cn3C)cc2)[C@@H](F)C1 [Example 160, 2-(4-cyclopropyl-6-methoxypyrimidin-5-yl)-N-((3S,4R)-3-fluoro-1-(2-methoxyethyl)piperidin-4-yl)-7-(4-(1-methyl-4-(trifluoromethyl)-1H-imidazol-2-yl)benzyl)-7H-pyrrolo[2,3-d]pyrimidine-6-carboxamide]
> 5	COc1ncnc(C2CC2)c1-c1ncc2cc(C(=O)NC3CCN(S(C)(=O)=O)CC3)n(Cc3ccc(-c4nc(C(F)(F)F)cn4C(C)C)cc3)c2n1 [Example 74, 2-(4-cyclopropyl-6-methoxypyrimidin-5-yl)-7-(4-(1-isopropyl-4-(trifluoromethyl)-1H-imidazol-2-yl)benzyl)-N-(1-(methylsulfonyl)piperidin-4-yl)-7H-pyrrolo[2,3-d]pyrimidine-6-carboxamide]
> 5	COc1ncnc(C2CC2)c1-c1ncc2cc(C(=O)NCCS(C)(=O)=O)n(Cc3ccc(-c4nc(C(F)(F)F)cn4C(C)C)cc3)c2n1 [Example 8, 2-(4-cyclopropyl-6-methoxypyrimidin-5-yl)-7-(4-(1-isopropyl-4-(trifluoromethyl)-1H-imidazol-2-yl)benzyl)-N-(2-(methylsulfonyl)ethyl)-7H-pyrrolo[2,3-d]pyrimidine-6-carboxamide]
> 5	COc1ncnc(C2CC2)c1-c1ncc2cc(C(=O)NC3CCS(=O)(=O)CC3)n(Cc3ccc(-c4nc(C(F)(F)F)cn4C(C)C)cc3)c2n1 [Example 93, 2-(4-cyclopropyl-6-methoxypyrimidin-5-yl)-N-(1,1-dioxidotetrahydro-2H-thiopyran-4-yl)-7-(4-(1-isopropyl-4-(trifluoromethyl)-1H-imidazol-2-yl)benzyl)-7H-pyrrolo[2,3-d]pyrimidine-6-carboxamide]
> 5	COc1ncnc(C2CC2)c1-c1ncc2cc(C(=O)N3CCNCC3)n(Cc3ccc(-c4nc(C(F)(F)F)cn4C(C)C)cc3)c2n1 [Example 54, (2-(4-cyclopropyl-6-methoxypyrimid in-5-yl)-7-(4-(1-isopropyl-4-(trifluoromethyl)-1H-imidazol-2-yl)benzyl)-7H-pyrrolo[2,3-d]pyrimidin-6-yl) (piperazin-1-yl)methanone]

— patent EP4806898A1, “HETEROARYL DERIVATIVE COMPOUND AND USE THEREOF” (Voronoi Inc., priority 2023, dated 2025)
